Where “and” joins values, the source holds several entries; their conditions need not be identical. Identical values can stand only once.
Test: Fenton stress of NAT in formulation buffer, RP-HPLC at 240 nm
Assay type: physicochemical
Conditions: for % NAT degradation ± 1SD: Fenton stress (0.2 mM FeCl2, 10 ppm H2O2, 3 hours 40° C.)
Description: FeCl2 (Sigma Aldrich, 98% purity) and H2O2 (Sigma Aldrich, 30% w/w in H2O) were added to a final concentration of 0.2 mM and 10 ppm, respectively, to a histidine-containing buffer at pH 5.5 with 0.3 mM NAT ±5 mM L-Met, pH 5.5. Upon addition of H2O2 the vials were vortexed briefly and incubated for 3 hours at 40° C. Oxidation was quenched by the addition of L-Met to a final concentration of 100 mM. After the addition of the quenching solution, the final NAT concentration was 0.2 mM.
NAT and NAT degradants were separated on an Agilent 1200 series HPLC or Waters H Class UPLC using an Agilent ZORBAX SB-C18 3.5 μm, 4.6×75 mm reverse phase column. Column temperature was held at 30±0.8° C. by a thermostat controller. The gradients used for HPLC and UPLC are listed in Tables 5 and 6, respectively (note: the shorter gradient on the UPLC was designed to accommodate earlier retention times and the column re-equilibration period was elongated due to the larger range of system pressure at a flow rate of 1.0 ml/min). NAT degradation products were detected at 240 nm. The standard bandwidth setting (8 nm for Agilent 1200 HPLC, 4.8 nm for Waters H-Class) was used for analysis on each instrument. The autosampler was maintained at 5±3° C. 10 nmol of NAT and/or NAT degradants (50 μl for most samples) was injected on to the column for analysis. The chromatograms were processed using Dionex Chromeleon software.
Total NAT degradation for each sample was calculated by comparing NAT peak area to the control sample for each stress model (Table 7). NAT degradation ranged from 3% (thermal stress, non-His buffer) to 83% (ICH light stress, His buffer).

improvement to NAT stability by 5 mM Met (total NAT loss) (Fenton model): 25% | % NAT degradation ± 1SD (His + 5 mM Met buffer, 0.3 mM NAT): 15.2 ± 0.7 (n = 3) % | % NAT degradation ± 1SD (His buffer pH 5.5, 0.3 mM NAT): 40 ± 3 (n = 3) % | NAT degradation (loss) (Fenton stress, under all tested conditions): 30-40% and 33-41%
SMILES: CC(=O)N[C@@H](Cc1c[nH]c2ccccc12)C(=O)O [NAT, N-acetyl-tryptophan]

From patent publication US20200246465A1, “USE OF TRYPTOPHAN DERIVATIVES FOR PROTEIN FORMULATIONS” (Genentech, Inc., priority 2015, published 2020)
